# “And” between values parts separate entries of the source, which are not always exact repeats. Equal values may be shown once. Read-outs that look alike come from different tables or passages of the source. Non-standard residues stand in square brackets, D forms with d. Residues, ends and D or L forms follow the SMILES beside them. No end group written: not given here.
# Assays:
# αIIbβ3 headpiece [1] = target: T1, αIIbβ3 headpiece (Homo sapiens, UniProt P05106+P08514); experiment: Fluorescence anisotropy binding assay (saturation and competition with FITC-dodecapeptide); set-up: increasing the concentration of purified recombinant αIIbβ3 headpiece to saturation; C-terminal α-helical coiled-coil (C); made in house; conditions: for reduction in affinity relative to AGDV: fluorescence anisotropy, Mn2+/Ca2+; for Kd: read-out: KD, competitive binding
# T1 sequence (P08514 32-652 limits assumed): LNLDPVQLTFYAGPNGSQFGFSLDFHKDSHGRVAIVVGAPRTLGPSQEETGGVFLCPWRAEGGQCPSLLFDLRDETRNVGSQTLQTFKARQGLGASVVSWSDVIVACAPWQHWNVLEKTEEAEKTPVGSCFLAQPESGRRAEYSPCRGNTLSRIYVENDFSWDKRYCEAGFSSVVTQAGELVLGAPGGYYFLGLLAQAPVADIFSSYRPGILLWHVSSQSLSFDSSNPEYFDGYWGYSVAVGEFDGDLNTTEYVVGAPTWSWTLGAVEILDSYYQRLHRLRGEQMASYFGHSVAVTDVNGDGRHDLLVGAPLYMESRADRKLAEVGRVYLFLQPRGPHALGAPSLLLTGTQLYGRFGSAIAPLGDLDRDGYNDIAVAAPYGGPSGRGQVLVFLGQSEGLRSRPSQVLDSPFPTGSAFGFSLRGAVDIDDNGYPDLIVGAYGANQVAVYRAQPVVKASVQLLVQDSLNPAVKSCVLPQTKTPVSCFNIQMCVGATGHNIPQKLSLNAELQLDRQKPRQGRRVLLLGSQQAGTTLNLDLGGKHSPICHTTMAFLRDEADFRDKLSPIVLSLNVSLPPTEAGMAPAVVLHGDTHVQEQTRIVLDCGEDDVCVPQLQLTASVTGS
# T1 sequence (P05106 27-498 limits assumed): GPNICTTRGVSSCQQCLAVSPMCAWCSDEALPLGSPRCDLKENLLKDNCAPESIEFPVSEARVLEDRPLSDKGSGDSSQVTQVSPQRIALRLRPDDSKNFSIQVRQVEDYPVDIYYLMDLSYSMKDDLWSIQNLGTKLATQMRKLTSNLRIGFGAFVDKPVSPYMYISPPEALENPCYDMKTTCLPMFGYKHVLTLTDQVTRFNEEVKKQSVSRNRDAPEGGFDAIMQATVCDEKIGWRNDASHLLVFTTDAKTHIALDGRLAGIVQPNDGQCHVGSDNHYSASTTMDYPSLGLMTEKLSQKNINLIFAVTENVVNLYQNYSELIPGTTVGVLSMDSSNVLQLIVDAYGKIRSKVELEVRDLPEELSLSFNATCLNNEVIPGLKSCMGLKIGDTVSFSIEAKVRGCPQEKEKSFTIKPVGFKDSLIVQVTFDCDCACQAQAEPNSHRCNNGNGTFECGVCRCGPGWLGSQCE
# Procedure: Binding affinities for different peptide ligands were measured using fluorescence anisotropy as described previously ([12]). Anisotropy is defined as (F‖ − F⊥)/(F‖ + 2F⊥), where F‖ and F⊥are the fluorescence intensities parallel and perpendicular to the excitation plane, respectively. mA units (shown in figures) correspond to 1,000 × anisotropy. […] KD^F* was fitted using one-site, specific binding; i.e. A = Amax × Citg/(KD^F* + Citg), where A represents the anisotropy signal from specific binding, Citg represents the concentration of integrin αIIbβ3 headpiece, and Amax is the maximum anisotropy signal. Background anisotropy obtained by adding an excess of 10 μM tirofiban was subtracted from anisotropy.
# I50 values for unlabeled peptides were obtained by least squares fitting. […] All measurements were in 20 mM HEPES, pH 7.5, 150 mM NaCl, 2 mM MnCl2, 0.1 mM CaCl2. The Prism GraphPad program (La Jolla, CA) was used to fit the saturation binding curve, inhibition curves, and I50 values.
# αIIbβ3 = conditions: cited from earlier work
# From the text: Ro-435054 is a 4-residue peptidomimetic, with an N-terminal amidinobenzoyl, a β-alanine, an L-Asp, and a C-terminal L-Phe (Fig. 7A). […] The high-affinity RGDF peptide ([19]) may be considered both fibrinogen-mimetic and RGD-mimetic. RGDF has the same two C-terminal a ...
# αIIbβ3 headpiece [2] = target: T1, αIIbβ3 headpiece; experiment: Ligand soaking into closed αIIbβ3 headpiece crystals, conformational state by X-ray structure; set-up: increasing the concentration of purified recombinant αIIbβ3 headpiece to saturation; C-terminal α-helical coiled-coil (C); made in house; conditions: 4 °C, state 1 closed, state 8 open
# Procedure: The αIIbβ3 headpiece was crystallized in the closed conformation with the thigh domain removed ([11]). Briefly, chymotrypsin- and carboxypeptidase-treated αIIbβ3-10E5 Fab complex was concentrated to 10 mg/ml in TBS (20 mM Tris, 150 mM NaCl, pH 7.4) with 1 mM Mg^2+, 1 mM Ca^2+ and crystallized in 11% PEG 8000, 0.2 M ammonium sulfate, 0.1 M Tris-HCl, pH 8.9 at 4 °C ([11]). Crystals were then stabilized with the same crystallization buffer but containing 15% PEG 8000, and glycerol concentration was incremented in 5% steps to 20% for cryoprotection. Finally, crystals were soaked in ligand in the same buffer with defined metal conditions for a specified duration at 4 °C (see Table 1). Diffraction data were collected at beamline ID-23 of the Advanced Photon Source (Argonne, IL). Resolution limit was determined by cross-correlation ([14]). Refinements using Phenix ([15]) were as described previously ([4]).
# We soaked AGDV peptide into αIIbβ3 headpiece crystals in the closed conformation (state 1) in 1 mM Mn^2+ and 0.2 mM Ca^2+ and were able to trap four distinct intermediate states during headpiece opening (Table 1). […] Two copies of the αIIbβ3 headpiece complex (molecules 1 and 2) exist in one asymmetric unit ([4]), so we were able to obtain two different conformational states in a single crystal (Table 1). Based on the conformation and position of the moving parts of the βI domain, i.e. the β1-α1 loop, α1-helix, β6-α7 loop, and the ADMIDAS metal, each intermediate (Fig. 4) is assigned a state number between 1 (Fig. 4A) and 8 (Fig. 4B) corresponding to previous RGD-bound intermediates ([4]). AGDV binds in the groove formed between the α- and β-subunits (Fig. 4, C, E, G, and I), but has limited contact with α, because it occupies only a portion (about two-thirds) of the groove occupied by RGD (Fig. 4B). The N-terminal amine of AGDV is >9.0 Å away from Asp-224 of αIIb, which forms salt bridges to the Arg of RGD and the Lys of KQAGDV. Moreover, unlike the extended backbone conformation adopted by RGD (Fig. 4, A and B), the backbone of AGDV is curved (Fig. 4, C, E, G, and I).
# [3] = target: T2, CHO cells stably expressing full-length human αIIbβ3 (Homo sapiens, UniProt P05106+P08514); experiment: Ligand-induced binding site (LIBS1) epitope expression, flow cytometry; type: cell-based
# T2 construct: CHO K1 cells stably transfected with full-length αIIbβ3; expressed in transfected cells; host or cells: CHO K1 cells, stably transfected
# T2 sequence (P08514 32-887 limits assumed): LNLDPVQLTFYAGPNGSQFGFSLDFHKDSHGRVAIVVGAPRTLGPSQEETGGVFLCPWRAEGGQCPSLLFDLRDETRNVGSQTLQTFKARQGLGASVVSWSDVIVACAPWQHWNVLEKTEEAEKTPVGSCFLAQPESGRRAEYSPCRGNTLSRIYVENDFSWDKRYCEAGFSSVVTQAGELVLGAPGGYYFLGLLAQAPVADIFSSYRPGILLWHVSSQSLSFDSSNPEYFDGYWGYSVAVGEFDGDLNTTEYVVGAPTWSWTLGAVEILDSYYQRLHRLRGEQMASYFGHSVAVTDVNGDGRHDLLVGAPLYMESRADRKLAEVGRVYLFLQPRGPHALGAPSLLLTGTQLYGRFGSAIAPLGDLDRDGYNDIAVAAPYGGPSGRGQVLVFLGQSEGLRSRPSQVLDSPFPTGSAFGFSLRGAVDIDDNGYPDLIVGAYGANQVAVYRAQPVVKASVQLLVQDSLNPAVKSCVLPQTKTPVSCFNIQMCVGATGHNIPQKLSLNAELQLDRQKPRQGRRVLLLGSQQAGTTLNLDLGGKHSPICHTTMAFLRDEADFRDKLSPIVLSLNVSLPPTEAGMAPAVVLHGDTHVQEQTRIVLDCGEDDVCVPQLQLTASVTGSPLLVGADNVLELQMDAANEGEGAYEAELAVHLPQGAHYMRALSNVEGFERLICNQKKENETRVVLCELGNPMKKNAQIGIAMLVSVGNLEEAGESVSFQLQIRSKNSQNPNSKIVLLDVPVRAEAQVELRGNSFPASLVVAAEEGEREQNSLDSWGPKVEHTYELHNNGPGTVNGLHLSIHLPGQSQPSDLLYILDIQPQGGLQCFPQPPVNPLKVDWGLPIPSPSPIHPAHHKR
# T2 sequence (P08514 891-1039 partner limits assumed): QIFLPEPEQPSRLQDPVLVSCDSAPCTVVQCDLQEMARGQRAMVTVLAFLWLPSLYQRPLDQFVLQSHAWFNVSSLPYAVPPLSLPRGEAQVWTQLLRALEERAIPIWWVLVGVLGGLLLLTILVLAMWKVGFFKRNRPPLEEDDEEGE
# T2 sequence (P05106 27-788): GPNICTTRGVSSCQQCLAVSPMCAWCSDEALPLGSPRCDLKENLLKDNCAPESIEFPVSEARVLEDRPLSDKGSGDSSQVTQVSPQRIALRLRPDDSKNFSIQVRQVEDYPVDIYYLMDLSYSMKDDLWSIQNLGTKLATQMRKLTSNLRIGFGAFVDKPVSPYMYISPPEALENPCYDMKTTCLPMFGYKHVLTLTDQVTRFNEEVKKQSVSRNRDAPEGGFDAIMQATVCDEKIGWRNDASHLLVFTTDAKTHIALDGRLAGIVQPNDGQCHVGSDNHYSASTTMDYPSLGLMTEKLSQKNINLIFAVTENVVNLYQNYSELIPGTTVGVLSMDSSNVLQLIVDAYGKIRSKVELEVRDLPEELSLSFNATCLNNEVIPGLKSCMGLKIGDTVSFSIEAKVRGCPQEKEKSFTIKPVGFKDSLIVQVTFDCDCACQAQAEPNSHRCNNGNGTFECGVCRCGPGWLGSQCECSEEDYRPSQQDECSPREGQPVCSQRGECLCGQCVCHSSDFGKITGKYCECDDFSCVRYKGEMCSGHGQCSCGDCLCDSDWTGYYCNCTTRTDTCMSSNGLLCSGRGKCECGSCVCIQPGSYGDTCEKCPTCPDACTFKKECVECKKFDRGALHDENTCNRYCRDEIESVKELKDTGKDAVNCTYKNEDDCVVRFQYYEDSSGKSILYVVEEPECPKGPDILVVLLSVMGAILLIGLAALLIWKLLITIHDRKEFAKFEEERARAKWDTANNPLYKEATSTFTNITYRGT
# Procedure: CHO K1 cells stably transfected with full-length αIIbβ3 ([16]) were incubated at room temperature with serially diluted peptide in 20 mM HEPES, pH 7.4, 150 mM NaCl, 5.5 mM glucose, 1% BSA, 1 mM Mg^2+/Ca^2+, and 10 μg/ml LIBS1 antibody for 30 min. Mixtures were washed twice in the same buffer minus LIBS1. The washed cells were incubated with FITC-conjugated anti-mouse antibody at room temperature for 30 min, washed again, chilled on ice, and subjected to flow cytometry. The dose-response curves were fit, and EC50 values were calculated by Prism GraphPad.
# [4] = system: fibrinogen binding to platelets; set-up: method as in PMID 6326808; conditions: read-out: IC50, block of fibrinogen binding to platelets; cited from earlier work
# αIIbβ3 headpiece [5] = target: T1, αIIbβ3 headpiece; experiment: Dynamic light scattering (DLS) of headpiece with peptide: headpiece opening; conditions: αIIbβ3 headpiece (20 μM) + 1 mM peptide; TBS pH 7.4, 1 mM Mg2+, 1 mM Ca2+, 10 min, 25 °C; headpiece alone 4.69 ± 0.02; triplicate, mean ± S.D.
# Procedure: (§1) Digested headpiece was purified by passage through a nickel-nitrilotriacetic acid column ([13]). For Stokes radius measurements, the re-purified headpiece at 10 μM (1 mg/ml by A280) was incubated with 1 mM peptide ligand in 20 mM TBS with 1 mM Mg^2+ and 1 mM Ca^2+ at 25 °C for 30 min and then applied to a Superdex 200 column (GE Healthcare Life Sciences) pre-equilibrated with the same buffer containing 1 mM peptide. Calibration and conversion of elution volume to Stokes radius was as described ([11]). For DLS, 20 μM chymotrypsin-treated, re-purified headpiece was filtered through a 100 nm cutoff membrane (Millipore Ultrafree centrifugal filter), incubated with 1 mM peptide in TBS plus 1 mM Mg^2+/Ca^2+ for 10 min at 25 °C in the cuvette, and read in the Viscotek 802 DLS (Viscotek Corp.). The DLS-derived hydration radii (Rh) were obtained by intensity-based fitting using the OmniSize program for 2–3 independent measurements using the same batch of integrin headpiece sample, but measured in different days. Each measurement was an average of at least fifteen 10-s reads.
# (§2) The change in Stokes radius was also measured by size-exclusion chromatography (Fig. 3B).
# αIIbβ3 headpiece [6] = target: T1, αIIbβ3 headpiece; experiment: Size-exclusion chromatography (Superdex 200) of headpiece with peptide: headpiece opening; conditions: for elution volume of αIIbβ3 headpiece: Superdex 200, 1 mM peptide, buffer alone 12.56 ± 0.01 ml, mean; for Stokes radii, Size-exclusion: αIIbβ3 headpiece (10 μM) + 1 mM peptide, Superdex 200, TBS, 1 mM Mg2+/Ca2+, 25 °C, 30 min, headpiece alone 4.78 ± 0.02, duplicate, mean and difference from mean
# Procedure: as §1, §2
compound,measurement,setting,value
CC(C)[C@@H](NC(=O)[C@H](CC(=O)O)NC(=O)CNC(=O)[C@H](C)N)C(=O)O [AGD(v)] (H-AGD[dV]-OH),reduction in affinity relative to AGDV,αIIbβ3 headpiece [1]; ratio of KD values,24 fold
same,Kd,αIIbβ3 headpiece [1],217 ± 85.2 µM
N=C(N)c1ccc(C(=O)NCCC(=O)N[C@@H](CC(=O)O)C(=O)N[C@@H](Cc2ccccc2)C(=O)O)cc1 [Ro-435054],binds the high-affinity state better than the low-affinity state,αIIbβ3,~100 fold
same,Kd,"αIIbβ3; read-out: KD, high-affinity state of αIIbβ3",0.006 µM
same,Kd,"αIIbβ3; read-out: KD, low-affinity state of αIIbβ3",0.58 µM
same,Conformational states (molecule 1/molecule 2),"αIIbβ3 headpiece [2]; 1 mM ligand, Mg/Ca (1 mM MgCl2, 1 mM CaCl2), soak 2 h",State 6/state 3
COC(=O)[C@@H](NC(=O)[C@H](CC(=O)O)NC(=O)CNC(=O)[C@H](C)N)C(C)C [AGDV-OCH3] (H-AGDV-OMe),reduction in affinity relative to AGDV,αIIbβ3 headpiece [1]; ratio of KD values,7.5 fold
same,Kd,αIIbβ3 headpiece [1],67.6 ± 23.3 µM
"HHLGGAKQAGDV [fibrinogen γC dodecapeptide, reference compound]",EC50,"[3]; CHO K1 αIIbβ3 transfectants, 1 mM Mg2+/1 mM Ca2+, 10 μg/ml LIBS1, 30 min, room temperature, flow cytometry, mean ± S.D., read-out: EC50, LIBS1 epitope exposure",578 ± 222 µM
same,Kd,αIIbβ3 headpiece [1],1.27 ± 0.08 µM
CC(C)[C@H](NC(=O)[C@H](CC(=O)O)NC(=O)CNC(=O)[C@H](C)N)C(N)=O [AGDV-NH2] (H-AGDV-NH2),Kd,αIIbβ3 headpiece [1],50.9 ± 13 µM
AGD,IC50,[4],~100 µM
RGDF [reference compound],"Stokes radii, DLS",αIIbβ3 headpiece [5],5.19 ± 0.04 nm
same,elution volume of αIIbβ3 headpiece,αIIbβ3 headpiece [6],12.15 ± 0.06 mL
same,"Stokes radii, Size-exclusion",αIIbβ3 headpiece [6],5.23 nm
"CC(=O)N[C@@H](C)C(=O)NCC(=O)N[C@@H](CC(=O)O)C(=O)N[C@H](C(=O)O)C(C)C [Ac-AGDV, N-acetylated AGDV] (Ac-AGDV-OH)",Kd,αIIbβ3 headpiece [1],1 ± 0.46 µM
CC(C)[C@H](NC(=O)[C@H](CC(=O)O)NC(=O)CNC(=O)[C@H](C)N)C(=O)O [AGDV] (H-AGDV-OH),less effective than GRGDSP (LIBS1 EC50),[3]; ratio of EC50 values,~7 times
same,less effective when compared with dodecapeptide (LIBS1 EC50),[3]; ratio of EC50 values,2.5 times
same,"Stokes radii, DLS",αIIbβ3 headpiece [5],5.24 ± 0.03 nm and 5.2 nm
same,elution volume of αIIbβ3 headpiece,αIIbβ3 headpiece [6],12.19 ± 0.05 mL
same,"Stokes radii, Size-exclusion",αIIbβ3 headpiece [6],5.17 nm
same,less potent than the dodecapeptide,"αIIbβ3 headpiece [1]; in Mn2+/Ca2+, ratio of KD values",~7 times
same,Kd,αIIbβ3 headpiece [1],9.03 ± 2.75 µM
same,Conformational states (molecule 1/molecule 2),"αIIbβ3 headpiece [2]; 50 mM ligand, Mn/Ca (2 mM MnCl2, 0.1 mM CaCl2), soak 1 week",State 7/state 2
same,Conformational states (molecule 1/molecule 2),"αIIbβ3 headpiece [2]; 50 mM ligand, Mn/Ca (2 mM MnCl2, 0.1 mM CaCl2), soak 2 h",State 6/state 3

# Reference: paper PMC4813479, “β-Subunit Binding Is Sufficient for Ligands to Open the Integrin αIIbβ3 Headpiece” (The Journal of Biological Chemistry, 2015)
